{
  "source": "patent US12138266B2",
  "about": "“Folate preparations” (APROFOL AG, priority 2018, dated 2024)",
  "key": {"[1]": {"tested_on": "primary keratinocytes of human skin", "conditions": "keratinocyte monolayer, MTT, 24 h; concentration based on the undiluted solution (2.5%) or the cream (=100%)", "procedure": "In a preliminary experiment, the usable dose was determined.\nFor this test, the keratinocytes were seeded on 96-well plates and incubated with five dilutions of the solutions or the cream for 24 h. Subsequently, a vital dye was added and finally, the colour change caused by the conversion of the vital dye in living cells was photometrically quantified.\nFIG. 1 and FIG. 2 show the determination of the usable dosage of the test substances. Cytotoxicity test with keratinocytes in monolayer culture after conversion of the vital dye MTT by living cells. The concentration data are based on the undiluted solutions or the cream (=100%). Treatment time=24 h. Untreated cultures served as negative controls. SDS served as a positive control (“dead control”). N=6+SEM\nIC70 values were calculated by nonlinear regression (Hill Slope, GraphPad Prism 5.04). The term IC70 denotes the concentration at which the viability of the treated cell culture is reduced to 70% of the untreated control. IC70 is often referred to as the border between toxicity and non-toxic effect."}, "human skin": {"tested_on": "human skin", "assay": "Skin penetration determined by Raman spectroscopy on forearm of a subject", "format": "in vivo", "conditions": "for Calcium levoleucovorin penetrated into the skin per area: surface to depth of 30 μm", "procedure": "In a further experiment it was examined if calcium levoleucovorin is able to penetrate skin. Penetration depth was determined by way of Raman spectroscopy. The measurement device was an inverse Raman microscope model 3510 with 60× oil immersion lens and evaluation software SkinTools of the company RiverD Rotterdam and the method were 10 profiles per application, measuring time of 5 seconds per measuring point, 7 steps of 2 μm, 4 steps of 4 μm, spectral range of 400-1800 cm^−1, at a laser excitation wavelength of 785 nm. Signals were generated with the software SkinTools that contains various skin and device specific spectra. The user can add their own spectra to the library. The evaluation is carried out via the CLS procedure (least squares method). The signals are output as a fit coefficient normalized to the fit coefficient of keratin.\nFor a quantitative indication of the result, a calibration must be carried out with standard series (see Tab. 1 and Tab. 2). First, the sensitivity of bovine serum albumin (BSA) is determined and the mass concentration BSA in g/ml is plotted against the BSA fit coefficient. A linear regression with fixed zero gives slope S. For the active substance, the molar concentration in mmol/ml is plotted against the drug coefficient multiplied by the BSA fit coefficient. This gives the slopes SA of the active ingredient. With the slopes, a so-called quantification factor of the drug can be created (SA/S=C). Multiplied by the factor C, the coefficient of fit of the active substance becomes the quantified value with the unit mmol/g of keratin.\nThe application of the drug or placebo (sodium gluconate) to the skin of a subject was done as follows: 20 μL was pipetted into an allergy patch and this was then stuck onto the forearm of a subject for a period of 30, 60, 120 and 240 minutes. At the end of the application time, the allergy patch was removed. Prior to determining the Raman profiles, the treated skin area was rubbed with a dry paper towel."}, "[2]": {"tested_on": "reconstructed skin models (epiCS)", "assay": "Bioavailability: transport through reconstructed skin models into basal compartment (LC/MS)", "format": "in vitro ADME, human", "excerpt": "In order to test the bioavailability in tissues such as skin, reconstructed skin models (epiCS, CS-1001, CellSystems, Troisdorf) were used which are generated from primary human keratinocytes. These models show a barrier very similar to human skin. They are regularly used as test models for the approval-relevant determination of corrosive or irritating effects of cosmetic raw materials. The skin models can usually be treated with finished products, as they are intended for use by the consumer. Nevertheless, before the skin models are treated with the test products, an assessment of the tolerability of the models is made to avoid overdosing.\nThe skin models were cultured on a porous membrane as mentioned above. The skin cells growing on it separate an apical compartment (with the skin model) from a basal compartment (with the nutrient medium). Mass transport from the apical to the basal compartment is thus almost exclusively possible through the cells. The only alternative to this is paracellular diffusion, which however, due to the functional tight junctions, is only possible for a few molecules and to a very limited extent. To determine the bioavailability of the products, the barrier is checked for leaks before use by means of resistance measurements. […] Suitable skin models are then treated topically with the test products. After 4 h, 8 h and 24 h, samples of the medium were taken in the basal part of the models to check for the presence and concentration of folates. Each test product and controls are tested at a concentration of three replicates each. The studies were repeated to obtain results from two independent runs. The determination of the folate contents of the media samples was started with the analysis of the 24 h values.\nThe analysis of the media samples was carried out by way of a LC/MS method established at a commercial service provider. The sensitivity of the method is in the range of 1 nmol/L. Before the start of the investigations, an estimate of the feasibility or a preliminary test was carried out in order to be able to assess the suitability of the method.\nIn addition, the topically applied amount was reduced to 50 μL each. In addition, in the main experiment, the lower compartment was not filled with medium (contains folic acid) but with 1 mL Hank balanced salt solution (without folic acid). Following a total of 24 hours incubation with the test substances, the skin models were again incubated with Resazurin to. […] In the main trial, two independent passes were completed.\nIn the lower compartment, 1 mL each of HBSS was initially charged. The results shown in the figures mentioned above were determined from 100 μL aliquots of this buffer amount.\nIn the apical compartment, 3 μmol of folate (solutions) or 0.3 μmol of folate are supplemented (in 50 μL)."}, "[3]": {"tested_on": "primary keratinocytes of human skin", "assay": "Scratch Assay (in vitro wound healing model)", "format": "cell-based", "conditions": "for free wound surface in photographs: 0.1%", "excerpt": "To examine the effect of different folate preparations on wound healing the in vitro model Scratch Assay was employed. This in vitro model comprises the defined injuring of a closed cell layer and the subsequent regrowth of the cells to a closed layer in the presence of the test-substance compared to appropriate controls, i.e. (untreated) cells with no test-substance present.\nThe experimental procedure for the Scratch Assay was as follows: The employed cells are primary keratinocytes of human skin (C-12005, Promocell, Heidelberg, Germany). […] Three different dosages were then used for the Scratch Assay. Further, cells were cultivated in growth-limiting medium in order to show a possible growth promoting effect of the test substances. For the medium used (C-20011, Promocell, Heidelberg, Germany) a growth limitation could be achieved by either the omission or dilution of epidermal growth factor (EGF) or of a complex mixture of undefined factors derived from […] BPE). Usually, growth-limiting medium was achieved by the omission of EGF. For the actual Scratch Assay keratinocytes were cultivated in appropriate cell culture plates (6-well plates, 657160, Greiner BioOne, Frickenhausen, Germany) bearing position markings. Cells were grown to a closed monolayer. Then, cells were scratched with pipette tip along the position markings, thereby generating a cell free area (scratch, injury). Cell monolayers were washed to remove partially detached cells and then covered with medium comprising the test-substances in appropriate dosages. Regrowth of the cells into the cell free area was observed over time at 0 h, 6 h and 24 h and photographically documented at these times. Analysis was done by marking and calculating the cell-free area (software ImageJ) and comparing the calculated areas at the different time point. […]\nFIGS. 4 and 5 show the cell-free area of the induced scratch after 6 h or 24 h. The measured values were expressed as a percentage of the starting area of the respective treatment group. […]"}},
  "data": [
    {"compound": "5-formyl-(6S)-tetrahydrofolic acid calcium salt [L-FTHF Ca]", "values": [
      {"measurement": "IC70 (concentration at which viability is reduced to 70% of the untreated control; usable dose)", "setting": "[1]", "value": 0.13, "unit": "%"},
      {"measurement": "concentration profile in skin over application time", "setting": "human skin; 30 to 240 minutes application time", "value": "tendency to increased calcium levoleucovorin concentration both in the top 5 μm and deeper layers of the skin"},
      {"measurement": "Amount recovered", "setting": "human skin; application period 30 min", "value": "3.76 +/− 2.82 % of amount applied"},
      {"measurement": "Calcium levoleucovorin penetrated into the skin per area", "setting": "human skin; application period 30 min", "value": "0.37 +/− 0.27 μmol/cm^2"},
      {"measurement": "Amount recovered", "setting": "human skin; application period 60 min", "value": "3.28 +/− 2.58 % of amount applied"},
      {"measurement": "Calcium levoleucovorin penetrated into the skin per area", "setting": "human skin; application period 60 min", "value": "0.32 +/− 0.25 μmol/cm^2"},
      {"measurement": "Amount recovered", "setting": "human skin; application period 120 min", "value": "6.3 +/− 8.22 % of amount applied"},
      {"measurement": "Calcium levoleucovorin penetrated into the skin per area", "setting": "human skin; application period 120 min", "value": "0.62 +/− 0.8 μmol/cm^2"},
      {"measurement": "Amount recovered", "setting": "human skin; application period 240 min, listed as Calcium levoleucovorin, calcium salt", "value": "9.96 +/− 3.26 % of amount applied"},
      {"measurement": "Amount recovered", "setting": "human skin; application period 240 min, listed as calcium levoleucovorin, calcium salt", "value": "10 % of amount applied"},
      {"measurement": "Calcium levoleucovorin penetrated into the skin per area", "setting": "human skin; application period 240 min", "value": "0.97 +/− 0.32 μmol/cm^2"},
      {"measurement": "folic acid concentration (comparison with other skin models)", "setting": "[2]; after 24 h", "value": "twice as high"},
      {"measurement": "methylfolate concentration in basal compartment (comparison)", "setting": "[2]; after 24 h", "value": "relatively high"},
      {"measurement": "formylfolate concentration in basal compartment", "setting": "[2]; after 24 h, outside calibration line, absolute values uncertain", "value": 150, "unit": "µmol/L"},
      {"measurement": "folic acid (folate) concentration in basal compartment", "setting": "[2]; after 24 h supplementation", "value": "about 200 nmol/L"}
    ]},
    {"compound": "5-methyl-(6S)-tetrahydrofolic acid di choline salt [L-MTHF di choline]", "values": [
      {"measurement": "free wound surface in photographs", "setting": "[3]; after 6 h", "value": "hardly any surface is overgrown"},
      {"measurement": "free wound surface in photographs", "setting": "[3]; after 24 h", "value": "it becomes difficult to mark a cell-free area"},
      {"measurement": "IC70 (concentration at which viability is reduced to 70% of the untreated control; usable dose)", "setting": "[1]", "value": 0.14, "unit": "%"},
      {"measurement": "methylfolate concentration in basal compartment (comparison)", "setting": "[2]; after 4 h, compared with models supplemented with L-FTHF or folate cream", "value": "significantly higher concentrations"},
      {"measurement": "formylfolate concentration in recipient compartment (basal)", "setting": "[2]; after 8 h", "value": "cannot be detected"},
      {"measurement": "methylfolate concentration in basal compartment (comparison)", "setting": "[2]; after 8 h", "value": "highest concentrations"},
      {"measurement": "formylfolate in basal compartment samples", "setting": "[2]; after 24 h", "value": "cannot be detected"},
      {"measurement": "methylfolate concentration in basal compartment (comparison)", "setting": "[2]; after 24 h", "value": "significantly higher than the highest standard"},
      {"measurement": "methylfolate concentration in basal compartment, maximum", "setting": "[2]; after 24 h, peak outside calibration line, absolute value uncertain", "value": 120, "unit": "µmol/L"}
    ]},
    {"compound": "N=C(N)NCCC[C@H](N)C(=O)O.N=C(N)NCCC[C@H](N)C(=O)O.Nc1nc2c(c(=O)[nH]1)N(C=O)[C@@H](CNc1ccc(C(=O)N[C@@H](CCC(=O)O)C(=O)O)cc1)CN2", "note": "[L-FTHF di arginine, 5-formyl-(6S)-tetrahydrofolic acid di L-arginine salt]", "values": [
      {"measurement": "regrowth of cells into cell-free area of scratch", "setting": "[3]; after 24 h, versus standard medium and FBS control", "value": "promoted dose-dependent reversal of “healing”"},
      {"measurement": "IC70 (concentration at which viability is reduced to 70% of the untreated control; usable dose)", "setting": "[1]", "value": 0.12, "unit": "%"},
      {"measurement": "methylfolate concentration in basal compartment (comparison)", "setting": "[2]; after 24 h", "value": "approximately half"}
    ]}
  ]
}
